6 molecules from ChEMBL document CHEMBL2074255, “Human intestinal H+/peptide cotransporter. Cloning, functional expression, and chromosomal localization” (J Biol Chem, 1995) can be followed below.

Residues, ends and D or L forms follow the SMILES beside them.

In general, Km refers to the substrate concentration at which the rate is half of its maximum.

Holding throughout (format): functional, cell-based
Data set [1] concerns the target T1, Solute carrier family 15 member 1 (Homo sapiens) (UniProt P46059).
T1 sequence (whole entry): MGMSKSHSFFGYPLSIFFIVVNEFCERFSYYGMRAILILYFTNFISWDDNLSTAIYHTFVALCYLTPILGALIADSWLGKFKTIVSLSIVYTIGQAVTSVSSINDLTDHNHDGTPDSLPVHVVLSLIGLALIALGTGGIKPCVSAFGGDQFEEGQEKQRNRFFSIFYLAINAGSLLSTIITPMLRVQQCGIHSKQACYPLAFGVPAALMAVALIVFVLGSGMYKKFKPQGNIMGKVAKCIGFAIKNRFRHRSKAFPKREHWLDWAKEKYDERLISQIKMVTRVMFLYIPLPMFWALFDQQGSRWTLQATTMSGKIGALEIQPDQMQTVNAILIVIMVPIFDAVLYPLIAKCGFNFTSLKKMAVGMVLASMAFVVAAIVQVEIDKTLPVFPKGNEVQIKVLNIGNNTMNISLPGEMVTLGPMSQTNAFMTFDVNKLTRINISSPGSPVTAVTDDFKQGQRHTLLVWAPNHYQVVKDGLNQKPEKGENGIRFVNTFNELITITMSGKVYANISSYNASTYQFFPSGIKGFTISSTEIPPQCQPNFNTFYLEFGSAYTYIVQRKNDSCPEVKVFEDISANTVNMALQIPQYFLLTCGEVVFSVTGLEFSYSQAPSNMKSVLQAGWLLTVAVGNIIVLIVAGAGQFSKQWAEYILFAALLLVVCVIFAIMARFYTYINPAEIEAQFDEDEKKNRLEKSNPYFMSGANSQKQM
Nature of the data set: TP_TRANSPORTER: inhibition of Gly-Sar uptake (Gly-Sar: 20 uM, Ala-Pro: 10000 uM) in PEPT1-expressing HeLa cells. Details: scale not given: the % may be the effect or the level left.

The target of data set [2] is T1, Solute carrier family 15 member 1 (Homo sapiens). Nature of the data set: TP_TRANSPORTER: inhibition of Gly-Sar uptake (Gly-Sar: 20 uM, Gly-Gly-Ile: 10000 uM) in PEPT1-expressing HeLa cells. On the set-up: scale not given: the % may be the effect or the level left.
The target is the same in data set [3]. Nature of the data set: TP_TRANSPORTER: inhibition of Gly-Sar uptake (Gly-Sar: 20 uM, Leu-Pro: 10000 uM) in PEPT1-expressing HeLa cells. Details: scale not given: the % may be the effect or the level left.
Data set [4] shares this target. Nature of the data set: TP_TRANSPORTER: inhibition of Gly-Sar uptake (Gly-Sar: 20 uM, Gly-Gly-Pro: 10000 uM) in PEPT1-expressing HeLa cells. On the set-up: scale not given: the % may be the effect or the level left.
Data set [5] shares this target. In words: TP_TRANSPORTER: inhibition of Gly-Sar uptake (Gly-Sar: 20 uM, Gly-Pro: 10000 uM) in PEPT1-expressing HeLa cells. On the set-up: scale not given: the % may be the effect or the level left.
Substrate in data set [6]: CN(CC(=O)O)C(=O)CN
Nature of the data set: TP_TRANSPORTER: uptake in PEPT1-expressing HeLa cells.

As for `C[C@H](N)C(=O)N1CCC[C@H]1C(=O)O` (H-Ala-Pro-OH), the Activity in data set [1] is 8%.
Regarding `CC[C@H](C)[C@H](NC(=O)CNC(=O)CN)C(=O)O` (H-Gly-Gly-Ile-OH), in data set [2], the Activity was 10%.
Consider `CC(C)C[C@H](N)C(=O)N1CCC[C@H]1C(=O)O` (H-Leu-Pro-OH), for which, in data set [3], the Activity was 8%.
With `NCC(=O)NCC(=O)N1CCC[C@H]1C(=O)O` (H-Gly-Gly-Pro-OH), the Activity in data set [4] was 13%.
For the molecule `NCC(=O)N1CCC[C@H]1C(=O)O` (H-Gly-Pro-OH), in data set [5], the Activity is 7%.

B1: Solute carrier family 15 member 1 (Homo sapiens), P46059 (protein)
chain: T1 sequence (whole entry)
In the case of B1, the Km in data set [6] turned out to be 290 µM.
